This passage reports IC50 results from US8569336B2, “Compounds for the treatment of inflammatory disorders” (priority 2008, dated 2013).

The test system of the first test is TNF-α production from human whole blood. The experiment in a line: Inhibition of TNF-α production from human whole blood (hWBA), LPS stimulated, ELISA. The conditions noted are these: Homo sapiens, 3.5 h, human whole blood diluted 1:1, LPS stimulated, 3.5 h, TNF-α by ELISA; read-out: hWBA (IC50). In kind it is cell-based.
As usually defined, the IC50 is the concentration that gives 50% inhibition. As for `COCCN1CCN(c2ccc3oc([C@]4(CN5Cc6ccc(OC)cc6C5=O)NC(=O)NC4=O)cc3n2)CC1` [Compound 2160], the IC50 is 333 nM.

The test is the same for the next values; noted with them: Homo sapiens, LPS-stimulated human whole blood, TNF-α by ELISA; read-out: hWBA (IC50).
As for `COc1ccc2c(c1)C(=O)N(C[C@@]1(c3cc4cc(N5CCNC5=O)ncc4o3)NC(=O)NC1=O)C2` [Compound 307], the IC50 is 529 nM. For `CCN1CCN(c2cc3cc([C@]4(CN5Cc6ccc(OC)cc6C5=O)NC(=O)NC4=O)oc3cn2)CC1` [Compound 308], the IC50 stood at 343 nM. Consider `CCOC(=O)NCc1ccc2oc([C@]3(CN4Cc5ccc(OC)cc5C4=O)NC(=O)NC3=O)cc2c1` [Compound 324], for which the IC50 is 1690 nM. Turning to `CCNC(=O)NCc1ccc2oc([C@]3(CN4Cc5ccc(OC)cc5C4=O)NC(=O)NC3=O)cc2c1` [Compound 325], the concentration for half-maximal inhibition (IC50) stood at 1990 nM.

Regarding `COc1ccc2c(c1)C(=O)N(C[C@@]1(c3cc4cc(CNC(=O)N(C)C)ccc4o3)NC(=O)NC1=O)C2` [Compound 326], the half-inhibitory concentration (IC50) was 1230 nM. Regarding `CCN1CCN(c2ccc(O)c(-c3ccc([C@]4(CN5Cc6ccc(OC)cc6C5=O)NC(=O)NC4=O)cc3)n2)CC1` [Compound 902], the IC50 is 1510 nM. Turning to `COC(=O)NCCNc1nc2cc([C@]3(CN4Cc5ccc(OC)c(F)c5C4=O)NC(=O)NC3=O)oc2cc1F` [Compound 1319], the IC50 turned out to be 252 nM. Still for that read-out and setting: for `CCOC(=O)[C@H]1CCC(=O)N1c1ccc2oc([C@]3(CN4Cc5ccc(OC)cc5C4=O)NC(=O)NC3=O)cc2n1` [Compound 1502] the value was 1380 nM; for `COc1ccc2c(c1)C(=O)N(C[C@@]1(c3cc4nc(-c5ccc(S(N)(=O)=O)cc5)ccc4o3)NC(=O)NC1=O)C2` [Compound 1528], 2690 nM. As to `COC(=O)CCNc1nc2cc([C@]3(CN4Cc5ccc(OC)c(F)c5C4=O)NC(=O)NC3=O)oc2cc1F` [Compound 1921], the 50% inhibitory concentration (IC50) was 239 nM. For `COC(=O)c1ccc2oc([C@]3(CN4Cc5ccc(OC)cc5C4=O)NC(=O)NC3=O)cc2n1` [Compound 1923], the IC50 worked out at 339 nM. Still for that read-out and setting: the value for `COc1ccc2c(c1)C(=O)N(C[C@@]1(c3cc4ncc(C(=O)NCCN(C)C)cc4o3)NC(=O)NC1=O)C2` [Compound 1932] was 800 nM; that for `COCCNC(=O)c1cnc2cc([C@]3(CN4Cc5ccc(OC)cc5C4=O)NC(=O)NC3=O)oc2c1` [Compound 1933] was 657 nM; that for `CCN1CCN(C(=NO)c2cnc3cc([C@]4(CN5Cc6ccc(OC)cc6C5=O)NC(=O)NC4=O)oc3c2)CC1` [Compound 1934] was 342 nM. `COc1ccc2c(c1)C(=O)N(C[C@@]1(c3cc4ncc(C(=NO)N5CCN(c6cnccn6)CC5)cc4o3)NC(=O)NC1=O)C2` [Compound 1935]: the IC50 was found to be 546 nM. Consider `COc1ccc2c(c1)C(=O)N(C[C@@]1(c3cc4nc(NC(=O)c5cccnc5)ccc4o3)NC(=O)NC1=O)C2` [Compound 1947], for which the IC50 was found to be 537 nM.

The same test, now with this note: Homo sapiens, human whole blood diluted 1:1, LPS stimulated, TNF-α by ELISA; read-out: hWBA (IC50).
In the case of `COc1ccc2c(c1)C(=O)N(C[C@@]1(c3cc4nc(NC(=O)c5cccnc5)ccc4o3)NC(=O)NC1=O)C2` [Compound 2313], the IC50 amounted to 537 nM. On to `COc1ccc2c(c1)C(=O)N(C[C@@]1(c3cc4nc(NS(C)(=O)=O)ccc4o3)NC(=O)NC1=O)C2` [Compound 2315], for which the concentration for half-maximal inhibition (IC50) was 189 nM.

On to `CCNC(=O)Nc1ccc2oc([C@]3(CN4Cc5ccc(OC)cc5C4=O)NC(=O)NC3=O)cc2n1` [Compound 2316], for which the IC50 is 672 nM. For the compound `COc1ccc2c(c1)C(=O)N(C[C@@]1(c3cc4c(o3)CCN(S(C)(=O)=O)C4)NC(=O)NC1=O)C2` [Compound 2438], the IC50 came out at 497 nM.

`CCOC(=O)N1CCc2cc([C@]3(CN4Cc5ccc(OC)cc5C4=O)NC(=O)NC3=O)oc2C1` [Compound 2439]: the IC50 was found to be 704 nM.

Take `COc1ccc2c(c1)C(=O)N(C[C@@]1(c3cc4c(o3)CCN(C(N)=O)C4)NC(=O)NC1=O)C2` [Compound 2440]: the IC50 is 646 nM. In the case of `COc1ccc2c(c1)C(=O)N(C[C@@]1(c3cc4c(o3)CCN(C(=O)N(C)C)C4)NC(=O)NC1=O)C2` [Compound 2441], the half-inhibitory concentration (IC50) came out at 501 nM.

The test is the same for the next values; noted with them: Homo sapiens, read-out: hWBA (IC50), LPS-stimulated human whole blood, TNF-α by ELISA.
As for `COc1ccc2c(c1F)C(=O)N(C[C@@]1(c3cc4nc(C)c(-c5ccc(N)nc5)cc4o3)NC(=O)NC1=O)C2` [Compound 1919], the IC50 was determined as 308 nM.
